# Reference: patent publication US9814758B2, “Inhibitors of apoptosis and uses thereof” (CENTRE NATIONAL DE LA RECHERCHE SCIENTIFIQUE-CNRS, priority 2010, dated 2017)
# Non-standard residues stand in square brackets, D forms with d. No end group written: not given here. Ahx = NCCCCCC(=O)O; βAla = NCCC(=O)O
# Key:
# [1] = system: NG108-15 cells; experiment: STS-induced DNA fragmentation (Cell Death detection ELISA PLUS) in NG108-15 cells; type: cell-based; conditions: murine NG118-15 (model for neuronal cells); FIG. 5D
# Experimental: (§1) FIG. 5: In vitro evaluation of the anti-apoptotic activity of CPPs and CPP-conjugates. Workflow and quantitation of DNA fragmentation in (A) C2C12 cells, (B) primary cardiomyocytes, (C) H9c2 cells and (D) NG108-15 cells. Data were normalized to 100% STS. Data shown are the means±SEM, with n≧5. Cells were seeded in 24-well plates and grown overnight. The next day, the cells were incubated with STS alone or with STS+1 μM peptide (in OPTI-MEM) (OPTI-MEM® is a modification of Eagle's Minimum Essential Media, buffered with HEPES and sodium bicarbonate, and supplemented with hypoxanthine, thymidine, sodium pyruvate, L-glutamine, trace elements, and growth factors) (STS concentration and incubation time for each cells are given in the figure). […] Following the regeneration phase, the cells were lyzed and DNA fragmentation was detected according to manufacturer's instructions (Cell Death detection ELISA^PLUS kit—Roche Diagnostics).
# (§2) Thereafter, the capacity of these peptides to inhibit apoptosis induced by staurosporine was evaluated. Apoptosis was determined using the Cell Death detection ELISA^PLUS kit (Roche) measuring the DNA fragmentation.
# (§3) The anti-apoptotic effects of the peptides were also analyzed in murine NG118-15 (model for neuronal cells) (FIG. 5D), in murine C2C12 (model for muscle cells) (FIG. 5A) and in rat H9c2 (model for cardiac cells) (FIG. 5C). […]
# [2] = system: H9c2 cells; experiment: STS-induced DNA fragmentation (Cell Death detection ELISA PLUS) in H9c2 cells; type: cell-based, rat; conditions: H9c2; against STS
# Experimental: FIG. 5: In vitro evaluation of the anti-apoptotic activity of CPPs and CPP-conjugates. Workflow and quantitation of DNA fragmentation in (A) C2C12 cells, (B) primary cardiomyocytes, (C) H9c2 cells and (D) NG108-15 cells. Data were normalized to 100% STS. Data shown are the means±SEM, with n≧5. Cells were seeded in 24-well plates and grown overnight. The next day, the cells were incubated with STS alone or with STS+1 μM peptide (in OPTI-MEM) (OPTI-MEM® is a modification of Eagle's Minimum Essential Media, buffered with HEPES and sodium bicarbonate, and supplemented with hypoxanthine, thymidine, sodium pyruvate, L-glutamine, trace elements, and growth factors) (STS concentration and incubation time for each cells are given in the figure). Thereafter, solutions were removed, replaced by complete medium and further incubated for 40 h. Following the regeneration phase, the cells were lyzed and DNA fragmentation was detected according to manufacturer's instructions (Cell Death detection ELISA^PLUS kit—Roche Diagnostics). […]
# as §2
# The anti-apoptotic effects of the peptides were also analyzed in murine NG118-15 (model for neuronal cells) (FIG. 5D), in murine C2C12 (model for muscle cells) (FIG. 5A) and in rat H9c2 (model for cardiac cells) (FIG. 5C). The highest reduction in DNA fragmentation were observed using Bpep-DAXXp in NG118-15 (66% reduction) using Tat-DAXXp in C2C12 (24% reduction) and Pip2b-DAXXp in H9c2 (31% reduction).
# [3] = system: primary cardiomyocytes; experiment: STS-induced DNA fragmentation (Cell Death detection ELISA PLUS) in primary cardiomyocytes; type: cell-based, mouse; conditions: for decrease in apoptosis: cardiomyocytes, STS + 1 μM peptide, FIG. 9; for anti-apoptotic effect compared with Tat-DAXXp: primary cardiomyocytes, against STS
# Experimental: FIG. 5: In vitro evaluation of the anti-apoptotic activity of CPPs and CPP-conjugates. Workflow and quantitation of DNA fragmentation in (A) C2C12 cells, (B) primary cardiomyocytes, (C) H9c2 cells and (D) NG108-15 cells. Data were normalized to 100% STS. Data shown are the means±SEM, with n≧5. Cells were seeded in 24-well plates and grown overnight. The next day, the cells were incubated with STS alone or with STS+1 μM peptide (in OPTI-MEM) (OPTI-MEM® is a modification of Eagle's Minimum Essential Media, buffered with HEPES and sodium bicarbonate, and supplemented with hypoxanthine, thymidine, sodium pyruvate, L-glutamine, trace elements, and growth factors) (STS concentration and incubation time for each cells are given in the figure). Thereafter, solutions were removed, replaced by complete medium and further incubated for 40 h. Following the regeneration phase, the cells were lyzed and DNA fragmentation was detected according to manufacturer's instructions (Cell Death detection ELISA^PLUS kit—Roche Diagnostics).
# FIG. 6: Anti-apoptotic activity of variants of the Tat-DAXXp sequence on primary cardiomyocytes. As described in the caption of FIG. 5, the different analogues of the DAXXp sequence (see Table 2) were assessed for anti-apoptotic properties against STS (Cell Death detection ELISA^PLUS kit—Roche Diagnostics) (A-B). None of the analogues were able to protect the primary cardiomyocytes—a fact which confirms that the 16mer DAXXp has the optimal length and sequence for highest cardioprotective effect.
# FIG. 7: Comparison of the murine/rat DAXXp with the human DAXXp sequence in terms of anti-apoptotic activity on C2C12 cells, primary cardiomyocytes, and H9c2. The murine DAXXp sequence conjugated to Tat (Tat-mDAXXp—SEQ ID NO: 61) which is identical to the rat DAXXp sequence (see FIG. 1B), was compared to the human construct (Tat-DAXXp) in terms of anti-apoptotic properties against STS (Cell Death detection ELISA^PLUS kit—Roche Diagnostics). The C2C12 cells and the primary cardiomyocytes used were from mice and the H9c2 cells from rat.
# FIG. 9: Comparison of FADDp constructs with Tat-DAXXp in terms of anti-apoptotic activity in primary cardiomyocytes and in H9c2 cells. Quantification of DNA normalized to 100% STS. Data shown are the means±SEM, with n≧5. Cells were seeded in 24-well plates and grown overnight. The next day, the cells were incubated with STS alone or with STS+1 μM peptide (in OPTI-MEM®) (OPTI-MEM® is a modification of Eagle's Minimum Essential Media, buffered with HEPES and sodium bicarbonate, and supplemented with hypoxanthine, thymidine, sodium pyruvate, L-glutamine, trace elements, and growth factors) (STS concentration is given in the figure and incubation time is given in FIG. 5). Thereafter, solutions were removed, replaced by complete medium and further incubated for 40 hours. Following the regeneration phase, the cells were lyzed and DNA fragmentation was detected according to manufacturer's instructions (Cell Death detection ELISA^PLUS kit—Roche Diagnostics).
# FIG. 10: Comparison of Tat-DAXXp and Tat-FADDp15 alone and in combination in primary cardiomyocytes (A) and in H9c2 cells (B).
# as §2
# In most publications, anti-apoptotic peptides currently available in the art are administrated 3-4 hours prior to apoptosis induction, which is poorly relevant to a clinical application. For that reason, the protocol used in the present study included administration of the peptides together with the staurosporine. […] This was not observed with CPP alone or with the Tat-scrDAXXp or Tat-ncDAXXp negative controls. […] To better compare the results, the DNA fragmentation (described by the enrichment factor) is related to the staurosporine-treated cells (=100%).
# [4] = system: C2C12 cells; experiment: STS-induced DNA fragmentation (Cell Death detection ELISA PLUS) in C2C12 cells; type: cell-based, mouse; conditions: C2C12; against STS
# Experimental: as §1, with “Diagnostics). […]” for “Diagnostics).”
# as §2, §3
# [5] = target: T1, intracellular region of the Fas receptor (Homo sapiens, UniProt P25445); experiment: Binding affinities (Kd) by surface plasmon resonance (Biacore); conditions: mean of three independent experiments, read-out: Kd ± SD
# T1 sequence (P25445 191-335 limits assumed): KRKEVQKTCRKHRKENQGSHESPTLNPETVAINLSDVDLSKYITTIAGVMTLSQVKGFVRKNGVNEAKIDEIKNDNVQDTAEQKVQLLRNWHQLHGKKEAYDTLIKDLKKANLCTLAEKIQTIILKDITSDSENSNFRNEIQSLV
# Text: Additionally, the potential interaction of the fragments with the intracellular region of the Fas receptor was cross-validated by measuring the binding affinities (Kd) using the surface plasmon resonance (SPR) technique (Biacore Life Science, Sweden).
substance,measurement,setting,value
RXRRBRRXRRBRXB-KKSRKEKKQTGSGPLG-NH2 (R[Ahx]RR[βAla]RR[Ahx]RR[βAla]R[Ahx][βAla]KKSRKEKKQTGSGPLG-NH2; N-terminus assumed; SMILES CC(C)C[C@H](NC(=O)[C@@H]1CCCN1C(=O)CNC(=O)[C@H](CO)NC(=O)CNC(=O)[C@@H](NC(=O)[C@H](CCC(N)=O)NC(=O)[C@H](CCCCN)NC(=O)[C@H](CCCCN)NC(=O)[C@H](CCC(=O)O)NC(=O)[C@H](CCCCN)NC(=O)[C@H](CCCNC(=N)N)NC(=O)[C@H](CO)NC(=O)[C@H](CCCCN)NC(=O)[C@H](CCCCN)NC(=O)CCNC(=O)CCCCCNC(=O)[C@H](CCCNC(=N)N)NC(=O)CCNC(=O)[C@H](CCCNC(=N)N)NC(=O)[C@H](CCCNC(=N)N)NC(=O)CCCCCNC(=O)[C@H](CCCNC(=N)N)NC(=O)[C@H](CCCNC(=N)N)NC(=O)CCNC(=O)[C@H](CCCNC(=N)N)NC(=O)[C@H](CCCNC(=N)N)NC(=O)CCCCCNC(=O)[C@@H](N)CCCNC(=N)N)[C@@H](C)O)C(=O)NCC(N)=O) [Bpep-DAXXp],reduction in DNA fragmentation,[1],66%
GRKKRRQRRRPPQ-KRKLERVQS-NH2 (GRKKRRQRRRPPQKRKLERVQS-NH2) [Tat-FADDp],anti-apoptotic effect compared with Tat-DAXXp,[2],less effective than Tat-DAXXp
same,decrease in apoptosis,[3],35%
same,anti-apoptotic effect compared with Tat-DAXXp,[3],less effective than Tat-DAXXp
GRKKRRQRRRPPQ-VGKRKLERVQSGLDL-NH2 (GRKKRRQRRRPPQVGKRKLERVQSGLDL-NH2) [Tat-FADDp15],anti-apoptotic effect compared with Tat-DAXXp,[2],equal
same,decrease in apoptosis,[3],57%
same,anti-apoptotic effect compared with Tat-DAXXp,[3],increased anti-apoptotic effect
GRKKRRQRRRPPQ-KRFRKEKKQLGSGLLG-NH2 (GRKKRRQRRRPPQKRFRKEKKQLGSGLLG-NH2) [Tat-mDAXXp],anti-apoptotic effect compared with Tat-DAXXp,[2],increase in anti-apoptotic effect
same,anti-apoptotic effect compared with Tat-DAXXp,[4],increase in anti-apoptotic effect
same,anti-apoptotic effect compared with Tat-DAXXp,[3],increase in anti-apoptotic effect
"KKGRKQSGESLGTPKK-NH2 [scrDAXXp, KKGRKQSGESLGTPKK -NH2]",Kd,[5],≥ 6 mM
